The values that follow come from PubChem BioAssay (NCI).

Among the test systems are HL-60(TB) leukemia; HCC-2998 colon; OVCAR-4 ovarian; SK-MEL-28 melanoma; PC-3 prostate; CAKI-1 renal; MOLT-4 leukemia; HT29 colon; SNB-19 CNS; M14 melanoma.
Common to all, as to assay: growth of human tumour cells (NCI), 48 h

“And” between values parts separate entries of the source, which are not always exact repeats. Identical values can stand only once.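 The compound was tested at five concentrations on cells cultured in 96-well plates, with a 48-hour exposure period. GI50 = concentration required for 50% inhibition of growth. The concentration for full growth arrest is given as TGI.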

Consider `CC1CN1CC(O)C(O)CN1CC1C` (configuration not stated), for which the GI50 in the experiment with HL-60(TB) leukemia is 305 nM; in the experiment with HCC-2998 colon, 6210 nM; with OVCAR-4 ovarian, 6.18 µM; in the experiment with SK-MEL-28 melanoma it was 17.5 µM; with PC-3 prostate, 12500 nM; in the experiment on CAKI-1 renal, 229 nM. In addition, the GI50 in the experiment with MOLT-4 leukemia is 234 nM; with HT29 colon it was 2870 nM; with SNB-19 CNS it was 6210 nM; with M14 melanoma, 2160 nM. In addition, the TGI was 20.1 µM with HL-60(TB) leukemia; 23.4 µM in the experiment with HCC-2998 colon; over 100 µM with OVCAR-4 ovarian; 97.4 µM in the experiment with SK-MEL-28 melanoma; over 78.4 µM in the experiment on PC-3 prostate; 4.54 µM in the experiment with CAKI-1 renal. Also, the TGI with MOLT-4 leukemia is 3.15 µM; in the experiment on HT29 colon it was 19.7 µM; with SNB-19 CNS, over 100 µM; in the experiment with M14 melanoma, 28.7 µM.
For the compound `COc1cc(OC)c(/C=C/C(=O)c2c(OC)cccc2OC)c(OC)c1`, the GI50 with HL-60(TB) leukemia is 348 nM; with HCC-2998 colon, 1150 nM; in the experiment with OVCAR-4 ovarian, 19.7 µM; in the experiment with SK-MEL-28 melanoma, 1.01 µM; in the experiment on PC-3 prostate, 1170 nM; with CAKI-1 renal it was 463 nM. For the same compound, the GI50 with MOLT-4 leukemia is 1170 nM; in the experiment on HT29 colon it was 398 nM; in the experiment with SNB-19 CNS it was 775 nM; in the experiment on M14 melanoma, 441 nM. In addition, the TGI with HL-60(TB) leukemia is 1.82 µM; with HCC-2998 colon, 6.91 µM; in the experiment on OVCAR-4 ovarian it was over 100 µM; with SK-MEL-28 melanoma, over 21.3 µM; in the experiment with PC-3 prostate, over 100 µM; in the experiment on CAKI-1 renal it was 97 µM. Further, the TGI in the experiment with MOLT-4 leukemia was over 100 µM; in the experiment on HT29 colon it was over 100 µM; in the experiment with SNB-19 CNS, over 100 µM; with M14 melanoma, 2.63 µM.
Turning to `NC(=S)N/N=C/c1ccc(OC(=O)COc2ccc(Cl)cc2)cn1`, the GI50 in the experiment on HL-60(TB) leukemia is 954 nM; with HCC-2998 colon, 8460 nM; with OVCAR-4 ovarian, 5.87 µM; with SK-MEL-28 melanoma, 36.4 µM; with PC-3 prostate, 4670 nM; with CAKI-1 renal, 4300 nM. Also, the GI50 was 2260 nM with MOLT-4 leukemia, 7190 nM in the experiment with HT29 colon, 20900 nM in the experiment on SNB-19 CNS and 3510 nM with M14 melanoma. Also, the TGI with HL-60(TB) leukemia is 20.8 µM; with HCC-2998 colon, over 100 µM; with OVCAR-4 ovarian, over 100 µM; in the experiment on SK-MEL-28 melanoma, over 100 µM; in the experiment with PC-3 prostate, over 100 µM; in the experiment with CAKI-1 renal it was 97.4 µM. Moreover, the TGI with MOLT-4 leukemia is over 100 µM; in the experiment on HT29 colon it was over 100 µM; in the experiment with SNB-19 CNS, over 100 µM; in the experiment with M14 melanoma, 15.6 µM.
Regarding `Clc1nc(Cl)c2ncn(Cc3cccc(COc4cccc(OCc5cccc(Cn6cnc7c(Cl)nc(Cl)nc76)c5)c4)c3)c2n1`, the GI50 in the experiment on HL-60(TB) leukemia was 4610 nM; in the experiment on HCC-2998 colon it was 17900 nM; with OVCAR-4 ovarian, 32 µM; in the experiment on SK-MEL-28 melanoma, 90.3 µM; in the experiment on PC-3 prostate, 14600 nM; in the experiment with CAKI-1 renal, over 100000 nM. The GI50 was 4730 nM in the experiment with MOLT-4 leukemia, over 100000 nM with HT29 colon, over 100000 nM in the experiment on SNB-19 CNS and 26100 nM in the experiment on M14 melanoma. The TGI with HL-60(TB) leukemia was 31.3 µM; with HCC-2998 colon it was 33.2 µM; in the experiment on OVCAR-4 ovarian, over 100 µM; with SK-MEL-28 melanoma, over 100 µM; with PC-3 prostate, 47 µM; in the experiment with CAKI-1 renal, over 100 µM. Besides, the TGI in the experiment on MOLT-4 leukemia, in the experiment with HT29 colon, in the experiment with SNB-19 CNS and in the experiment with M14 melanoma was over 100 µM each time.
With `CCc1[nH]c(=O)nc(N)c1-c1ccc(N2CCCCC2)c([N+](=O)[O-])c1`, the TGI in the experiment with HL-60(TB) leukemia, in the experiment with HCC-2998 colon, in the experiment with OVCAR-4 ovarian, in the experiment on SK-MEL-28 melanoma, in the experiment on PC-3 prostate and in the experiment on CAKI-1 renal was over 100 µM in each case. Further, the TGI in the experiment on MOLT-4 leukemia, in the experiment on HT29 colon, in the experiment on SNB-19 CNS and with M14 melanoma was over 100 µM each time.
Regarding `CCC1(O)C(=O)OCc2c1cc1n(c2=O)Cc2cc3ccc(C=O)cc3nc2-1` (configuration not stated), the TGI is 5.99 µM in the experiment on HL-60(TB) leukemia; 10.4 µM and 26.1 µM in the experiment with HCC-2998 colon; 50 µM and 23.6 µM with OVCAR-4 ovarian; 50 µM and > 100 µM in the experiment with SK-MEL-28 melanoma; 50 µM and > 100 µM in the experiment on PC-3 prostate; 19.2 µM and 8.81 µM in the experiment with CAKI-1 renal. The TGI with MOLT-4 leukemia was 1.78 µM and 1.05 µM; in the experiment with HT29 colon, 16.5 µM and > 89 µM; in the experiment with SNB-19 CNS it was 50 µM and > 100 µM; with M14 melanoma, 50 µM and 19.2 µM. Moreover, the GI50 in the experiment on HCC-2998 colon was 2520 nM; with OVCAR-4 ovarian, 10.3 µM; with SK-MEL-28 melanoma it was 11.2 µM; in the experiment on CAKI-1 renal, 1990 nM; in the experiment with MOLT-4 leukemia, 209 nM; with SNB-19 CNS, 1670 nM. Besides, in the experiment on M14 melanoma, the GI50 was 1440 nM.
For `Nc1ncc(-c2cnn(CCO)c2)c2scc(-c3ccc(NC(=O)Nc4cccc(F)c4)cc3)c12`, the GI50 in the experiment on HL-60(TB) leukemia was 499 nM; in the experiment on HCC-2998 colon, 1390 nM; in the experiment with OVCAR-4 ovarian, 0.299 µM; with SK-MEL-28 melanoma, 0.465 µM; in the experiment with PC-3 prostate it was 288 nM; in the experiment on CAKI-1 renal it was 320 nM. Also, the GI50 was under 22.6 nM with MOLT-4 leukemia, 283 nM in the experiment with HT29 colon, 1040 nM in the experiment on SNB-19 CNS and 193 nM with M14 melanoma. The TGI in the experiment with HL-60(TB) leukemia is 5.09 µM; in the experiment on HCC-2998 colon it was 6.79 µM; in the experiment on OVCAR-4 ovarian, 11.4 µM; in the experiment with SK-MEL-28 melanoma, 3.56 µM; with PC-3 prostate, 3.28 µM; with CAKI-1 renal, 2.2 µM. Besides, the TGI came out at 2.34 µM in the experiment with MOLT-4 leukemia, 2.07 µM with HT29 colon, 9.16 µM with SNB-19 CNS and 3.31 µM in the experiment on M14 melanoma.
Turning to `COc1cc(C2=NN(C(C)=O)C(c3ccc(OC(C)=O)cc3OC(C)=O)O2)c(OC(C)=O)c2ccccc12` (configuration not stated), the GI50 in the experiment on HL-60(TB) leukemia is 671 nM; in the experiment on HCC-2998 colon it was 1030 nM; in the experiment on OVCAR-4 ovarian, 0.306 µM; in the experiment with SK-MEL-28 melanoma, 1.27 µM; in the experiment with PC-3 prostate it was 753 nM; in the experiment with CAKI-1 renal, 465 nM. For the same compound, the GI50 in the experiment on MOLT-4 leukemia is 440 nM; with HT29 colon, 4480 nM; with SNB-19 CNS, 1190 nM; in the experiment on M14 melanoma it was 582 nM. Moreover, the TGI was 2.94 µM with HL-60(TB) leukemia; 27.9 µM in the experiment on HCC-2998 colon; 8.64 µM in the experiment on OVCAR-4 ovarian; 23.2 µM in the experiment with SK-MEL-28 melanoma; 35.4 µM in the experiment on PC-3 prostate; over 21.1 µM in the experiment on CAKI-1 renal. Also, the TGI in the experiment with MOLT-4 leukemia was 8.5 µM; in the experiment with HT29 colon, 41.3 µM; in the experiment on SNB-19 CNS it was over 75.3 µM; with M14 melanoma, 7.15 µM.
